This is an account of results in ChEMBL document CHEMBL1154844, “An antimycobacterial cyclodepsipeptide from the entomopathogenic fungus Ophiocordyceps communis BCC 16475” (J Nat Prod, 2010).

Converted amounts (≈) assume the structure as drawn. The source made the active and inactive calls. The calls are words filed in the database; no cut-off is given here.

In one data set the test system is Venturia inaequalis. The data set can be described thus: Antifungal activity against Venturia inaequalis. It counts as functional.
For a further data set, the system named is Bipolaris oryzae. The data set can be described thus: Antifungal activity against Cochliobolus miyabeanus. It counts as functional.
Data set [1] deals with Monilinia mali (Monilinia mali). The data set can be described thus: Antifungal activity against Monilinia mali.
The subject of data set [2] is Mycobacterium tuberculosis. The data set can be described thus: Antibacterial activity against Mycobacterium tuberculosis H37Ra by Green fluorescent protein microplate assay. It counts as functional.
A further data set concerns Candida albicans. The data set is described as follows: Antifungal activity against Candida albicans. It counts as functional, organism-based.
Another data set deals with Pyricularia grisea. The data set is described as follows: Antifungal activity against Magnaporthe grisea. It counts as functional, organism-based.
In data set [3] the test system is Vero. The data set is described as follows: Cytotoxicity against african green monkey Vero cells at 88 uM by Green fluorescent protein microplate assay. The note with it: chlorocebus sabaeus. It counts as cell-based.
The test system of a further data set is Plasmodium falciparum. The data set can be described thus: Antimalarial activity against Plasmodium falciparum K1. It counts as functional, organism-based.
Data set [4] concerns KB. The data set is described as follows: Cytotoxicity against human KB cells by resazurin microplate assay. It counts as functional, cell-based. (Resazurin is reduced to fluorescent resorufin, in cell work by metabolically active cells.)
Data set [5] has as its system NCI-H187. The data set is described as follows: Cytotoxicity against human NCI-H187 cells at 88 uM by resazurin microplate assay. It counts as functional, cell-based.
For data set [6], the system named is MCF7. The data set is described as follows: Cytotoxicity against human MCF7 cells at 88 uM by resazurin microplate assay. It counts as functional, cell-based.
Data set [7] relates to Vero. The data set is described as follows: Cytotoxicity against african green monkey Vero cells at 178 uM by Green fluorescent protein microplate assay. It counts as cell-based. The note with it: chlorocebus sabaeus.
In data set [8] the test system is KB. The data set can be described thus: Cytotoxicity against human KB cells at 178 uM by resazurin microplate assay. It counts as functional, cell-based.
Data set [9] concerns MCF7. The data set can be described thus: Cytotoxicity against human MCF7 cells by resazurin microplate assay. It counts as functional, cell-based.
The subject of data set [10] is NCI-H187. The data set is described as follows: Cytotoxicity against human NCI-H187 cells at 178 uM by resazurin microplate assay. It counts as functional, cell-based.

For the compound `CCCCCCCCCC[C@@H](C)[C@@H]1CC(=O)N[C@H]([C@@H](C)O)C(=O)N[C@@H](C)C(=O)N[C@H](C)C(=O)N[C@@H](CCC(N)=O)C(=O)N[C@H](Cc2ccc(O)cc2)C(=O)N[C@@H](C(C)C)C(=O)O1` [WA 493 A], the minimum inhibitory concentration (MIC) (in the data set on Venturia inaequalis; in the data set with Bipolaris oryzae; in data set [1]) was 1 µg/mL (≈ 1.14 µM) throughout.

For the compound `CCCCCCCCCC1CCCC(=O)N[C@H]([C@@H](C)O)C(=O)N[C@@H](C)C(=O)N[C@@H](C)C(=O)N[C@@H](CCC(N)=O)C(=O)N[C@@H](Cc2ccc(O)cc2)C(=O)N[C@@H](C(C)C)C(=O)O1` (stereo partly specified) [CORDYCOMMUNIN], the MIC in data set [2] was 15 µM (≈ 12.9 µg/mL). The MIC result in the data set with Candida albicans, in the data set on Pyricularia grisea and with Plasmodium falciparum was “inactive” throughout. In the data set with Vero [3], the Activity entry is listed as “Not Active”. The compound further yielded a half-maximal inhibitory concentration (IC50) in the data set with KB [4] of 45 µM. The result in the data set with NCI-H187 [5] and in the data set with MCF7 [6] was inactive.

As for `CCC[C@H](O)C[C@@H]1Cc2cc(OC)cc(O)c2C(=O)O1`, in the data set on Vero [7], the Activity entry was “Not Active”. For the same compound, the result in the data set with KB [8] and with NCI-H187 [10] was inactive. Moreover, the IC50 with MCF7 [9] and with MCF7 [6] was 62 µM each time.

Consider `CCCCCCCCCC[C@@H](C)[C@@H]1CC(=O)N[C@H]([C@@H](C)O)C(=O)N[C@@H](C)C(=O)N[C@H](C)C(=O)N[C@@H](CCC(N)=O)C(=O)N[C@H](Cc2ccc(O)cc2)C(=O)N[C@@H]([C@@H](C)CC)C(=O)O1`, for which the minimal inhibitory concentration (MIC) (against Venturia inaequalis; against Bipolaris oryzae; in data set [1]) was 1 µg/mL (≈ 1.13 µM) each time.

Regarding `CCC[C@H](O)C[C@@H]1Cc2cc(OC)cc(OC)c2C(=O)O1`, the outcome (in [2]; with KB [8]; in the data set on NCI-H187 [5]; in the data set on MCF7 [9]; with NCI-H187 [10]; in the data set with MCF7 [6]) was inactive. The MIC entry in the data set with Candida albicans, with Pyricularia grisea and with Plasmodium falciparum was “inactive” in each case. For the same compound, the Activity entry in the data set on Vero [7] and with Vero [3] was “Not Active” throughout. In the data set on KB [4], this compound had an IC50 of 45 µM.

For orientation: MIC means the least concentration at which growth counts as inhibited. What is called IC50 is the concentration that gives 50% inhibition.
